Measured values as given in patent US20060276340A1, “HERBICIDE COMPOSITION COMPRISING PYRIBAMBENZ-PROPYL OR PYRIBAMBENZ-ISOPROPYL” (Zhejiang Chem-Tech Group Co., Ltd., priority 2003, published 2006).
“Also recorded” adds a separate entry of the source.

Assays:
Assay type in all cases: in vivo
[1] = tested on: Polypogon fugax; test: greenhouse pot test, Tables 1-2; settings: POLFU 3-4 leaves
Description: (§1) The test soil is a formulated sandy loam soil. 9.5 centimeter diameter pots are used for herbicidal activity test.
(§2) The soil in the pot for the pre-emergence test was sprayed one day after planting. The preparation liquid for the treatment prepared by mixing individual single-herbicides was diluted with water to the desired dosage.
(§3) The pots for post-emergence treatment are placed into a greenhouse and incubated for 7 to 9 days, and then subjected to leave treatment by spraying. The preparation liquid for the treatment prepared by mixing individual single-herbicides was diluted with water to the desired dosage.
(§4) The treated pots stood for one day, then were placed in a greenhouse and watered regularly. The herbicidal activities of the compositions were evaluated by visual examination after incubating for 14 to 21 days.
(§5) The herbicidal activities of the compositions were evaluated by plant symptoms such as stunting, deformity, chlorosis, and whitening. 0 represents that the compositions have no herbicidal effect or have safety to crops. 100 represents that the weeds or crops were completely killed.

[2] = tested on: Poa annua; test: greenhouse pot test, Tables 1-2; settings: POAAN 3 leaves
Description: as §1, §2, §3, §4, §5

[3] = tested on: Alopecurus aequalis; test: greenhouse pot test, Tables 1-2
Description: as §1, §2, §3, §4, §5

[4] = tested on: Digitrria sanguinalis; test: greenhouse pot test, Tables 1-2; settings: DIGSA 3 leaves
Description: as §1, §2, §3, §4, §5

[5] = tested on: Beckmannia syzigachne; test: greenhouse pot test, Tables 1-2; settings: BECSY 2 leaves
Description: as §1, §2, §3, §4, §5

[6] = tested on: rape; test: safety to crops
Description: The herbicidal activities of the compositions were evaluated by plant symptoms such as stunting, deformity, chlorosis, and whitening. 0 represents that the compositions have no herbicidal effect or have safety to crops. 100 represents that the weeds or crops were completely killed. [table]

[7] = tested on: Polypogon fugax; test: greenhouse pot test, post-emergence treatment; settings: POLFU 4˜4.5 leaves
Description: as §1, §3, §4, §5

[8] = tested on: Poa annua; test: greenhouse pot test, post-emergence treatment; settings: POAAN
Description: as §1, §3, §4, §5

[9] = tested on: Cerastium arvense; test: greenhouse pot test, post-emergence treatment; settings: CERAR 6 leaves
Description: as §1, §3, §4, §5

[10] = tested on: Alopecurus aequalis; test: greenhouse pot test, post-emergence treatment; settings: ALOAE 3 leaves
Description: as §1, §3, §4, §5

[11] = tested on: Alopercurus japonicus; test: greenhouse pot test, post-emergence treatment; settings: ALOJA
Description: as §1, §3, §4, §5

[12] = tested on: Veronica didyma; test: greenhouse pot test, post-emergence treatment; settings: VERDI
Description: as §1, §3, §4, §5

[13] = tested on: Galium aparine; test: greenhouse pot test, post-emergence treatment
Description: as §1, §3, §4, §5

[14] = tested on: Poa annua; test: greenhouse pot test, post-emergence early stage treatment
Description: as §1, §3, §4, §5

[15] = tested on: Cerastium arvense; test: as above
Description: as §1, §3, §4, §5

[16] = tested on: Alopercurus japonicus; test: as above; settings: ALOJA
Description: as §1, §3, §4, §5

[17] = tested on: Galium aparine; test: as above
Description: as §1, §3, §4, §5

[18] = tested on: Beckmannia syzigachne; test: as above; settings: BECSY 2˜3 leaves
Description: as §1, §3, §4, §5

[19] = tested on: weeds in rape field; test: weed control in rape field, descriptive statements

Structure (SMILES): COc1cc(OC)nc(Oc2ccccc2CNc2ccc(C(=O)OC(C)C)cc2)n1 [Pyribambenz-isopropyl, iso-propyl 4-({2-[(4,6-dimethoxypyrimidin-2-yl)oxy]benzyl}amino)benzoate]
- visual evaluation of weed effects ([1]; 30 g/ha): 80%
- visual evaluation of weed effects ([1]; 45 g/ha): 80%
- visual evaluation of weed effects ([2]; 30 g/ha): 60%
- visual evaluation of weed effects ([2]; 45 g/ha): 90%
- visual evaluation of weed effects ([3]; ALOAE 0 leaf, 30 g/ha): 90%
- visual evaluation of weed effects ([3]; ALOAE 0 leaf, 45 g/ha): 90%
- visual evaluation of weed effects ([3]; ALOAE 3 leaves, 30 g/ha): 100%
- visual evaluation of weed effects ([3]; ALOAE 3 leaves, 45 g/ha): 100%
- visual evaluation of weed effects ([4]; 30 g/ha): 60%
- visual evaluation of weed effects ([4]; 45 g/ha): 80%
- visual evaluation of weed effects ([5]; 30 g/ha): 30%
- visual evaluation of weed effects ([5]; 45 g/ha): 30%
- selectivity between rape and weeds ([6]; in vivo): good selectivity
- safety to crops ([6]; rape / objective crops): safety toward rape
- visual evaluation of weed effects ([7]; 30 g/ha): 50%
- visual evaluation of weed effects ([7]; 45 g/ha): 60%
- visual evaluation of weed effects ([8]; 30 g/ha): 85%
- visual evaluation of weed effects ([8]; 45 g/ha): 90%
- visual evaluation of weed effects ([9]; 30 g/ha): 50%
- visual evaluation of weed effects ([9]; 45 g/ha): 60%
- visual evaluation of weed effects ([10]; 30 g/ha): 80%
- visual evaluation of weed effects ([10]; 45 g/ha): 90%
- visual evaluation of weed effects ([11]; 30 g/ha): 85%
- visual evaluation of weed effects ([11]; 45 g/ha): 90%
- visual evaluation of weed effects ([12]; 30 g/ha): 20%
- visual evaluation of weed effects ([12]; 45 g/ha): 30%
- visual evaluation of weed effects ([13]; GALAP 7˜8 leaves, 30 g/ha): 0%
- visual evaluation of weed effects ([13]; GALAP 7˜8 leaves, 45 g/ha): 0%
- visual evaluation of weed effects ([13]; GALAP, 30 g/ha): 20%
- visual evaluation of weed effects ([13]; GALAP, 45 g/ha): 20%
- visual evaluation of weed effects ([14]; POAAN 2˜3 leaves, 30 g/ha): 80%
- visual evaluation of weed effects ([14]; POAAN 2˜3 leaves, 45 g/ha): 95%
- visual evaluation of weed effects ([14]; POAAN, 30 g/ha): 95%
- visual evaluation of weed effects ([14]; POAAN, 45 g/ha): 98%
- visual evaluation of weed effects ([15]; CERAR 3˜4 leaves, 30 g/ha): 40%
- visual evaluation of weed effects ([15]; CERAR 3˜4 leaves, 45 g/ha): 60%
- visual evaluation of weed effects ([15]; CERAR, 30 g/ha): 80%
- visual evaluation of weed effects ([15]; CERAR, 45 g/ha): 90%
- visual evaluation of weed effects ([16]; 30 g/ha): 90%
- visual evaluation of weed effects ([16]; 45 g/ha): 90%
- visual evaluation of weed effects ([17]; GALAP 7˜8 leaves, 30 g/ha): 0%
- visual evaluation of weed effects ([17]; GALAP 7˜8 leaves, 45 g/ha): 10%
- visual evaluation of weed effects ([17]; GALAP, 30 g/ha): 30%
- visual evaluation of weed effects ([17]; GALAP, 45 g/ha): 50%
- visual evaluation of weed effects ([18]; 30 g/ha): 50%
- visual evaluation of weed effects ([18]; 45 g/ha): 70%
- weed control ([19]; Alopecurus aequalis, Alopecurus japonicus, Stellaria aquatica, Stallaria media and Atellaria alsine): high-effectively control; also recorded: effective weed control
- effectiveness of control ([19]; second important weeds in rape field: Poa annua, sclerochloa kengiana, Beckmannia syzigachne, Polypogon fugax, broadleaf Cardlamine hirsuta, Galium aparine, Lapsana apogonoides, Hemistepta lyrata): moderate
